# Where two headings read alike, the source gives them in different places.
# What was measured:
# AAC [1] = target: T1, AAC (Homo sapiens, UniProt P02489); assay: UV-induced aggregation of hAAC, measured by absorbance; assay type: biochemical
# T1 sequence (P02489 1-173): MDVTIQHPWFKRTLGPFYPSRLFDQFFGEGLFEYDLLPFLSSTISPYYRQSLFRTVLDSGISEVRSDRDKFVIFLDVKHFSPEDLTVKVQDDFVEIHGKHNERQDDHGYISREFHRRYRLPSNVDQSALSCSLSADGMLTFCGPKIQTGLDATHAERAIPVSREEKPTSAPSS
# Protocol: (§1) It was determined that CAP4349 protects hAAC from UV-induced aggregation in a concentration-dependent manner. The meglumine salt of Tafamidis (CAP4349-M) was tested for its ability to prevent hAAC aggregation using SDS/PAGE and absorbance.
# In another study, hAAC, with or without CAP4349-M, was exposed to UV light for 60 minutes and the resulting aggregation was measured by absorbance. The results are shown in FIG. 1B in terms of mean percentage absorbance change±SD (n=3 or 4). The EC50 value, which is the half-maximal response of hAAC aggregation, was determined to be19.7(±1.4) μM.
# AAC [2] = target: T1, AAC; assay: Chaperone assay: heat and DTT-induced aggregation of lysozyme in presence of AAC; assay type: biochemical; conditions: AAC 250, lysozyme 500 μg/ml; 10 mM DTT, 37° C.; absorbance at 400 nm
# Protocol: (§2) Post translational modification, due to UV light, oxidation, glycation, crosslinking, and proteolysis can affect the CLA of AAC and its ability to prevent the aggregation of target proteins. These modifications lead to aggregation of other lens crystallins, which culminate in the development of lens opacity and cataract development. Since CAP4349 prevents aggregation of hACC, the effect of CAP4349 on the CLA activity of AAC was evaluated using in vitro chaperone assays with (i) lysozyme as a model client protein, and (ii) bovine γ-crystallin (BGC), as a physiologically relevant lenticular protein.
# Heat-induced aggregation of lysozyme: In the presence of a reducing agent (DTT) and heat (37° C.), lysozyme undergoes denaturation and aggregation. The CLA activity of AAC can protect lysozyme against heat and DTT-induced aggregation (Robey, R. L. et al. (1997), Journal of Heterocyclic Chemistry, 34: (2)413-428).
# AAC [3] = target: T1, AAC; assay: Chaperone assay: UV-induced aggregation of BGC in presence of AAC; assay type: biochemical; conditions: UV radiation
# Protocol: as §2
# UV-Induced Aggregation of BGC: Exposure to UV radiation is a contributing factor to cataract formation. […]
# The aggregation reaction was initiated by exposing the reaction mixture to UVB radiation. Aggregation was monitored for changes in light scattering by measuring absorbance at 600 nm at t=0, 15, 30 and 45 minutes. Mean percentage absorbance±SD from triplicate or quadruplicate wells plotted on a graph (FIG. 2C). EC50 value was calculated as 64.8 (±1.3) […], which is the concentration of CAP4349-M concentration producing half-maximal response of BGC aggregation in presence of AAC.
# [4] = system: HLE cell line SRA 01/04 cells; assay: Heat-induced cell death of human lens epithelial cells; assay type: cell-based; conditions: pre-incubated 2 hours; 50° C. for 40 m
# Source text: (§3) Efficacy of CAP4349 in protection of human lens epithelial cells from stress, as a measure of cellular AC function: Heating of intact human lenses dramatically promotes conversion of soluble AC into HMW aggregates and AC is responsible for protecting human lens epithelial (HLE) cells from thermal stress induced cell death (Peschek J et al. (2009), Proc. Natl. Acad. Sci. USA. 106(32):13272-13277). Survival of HLE cells following UV stress also depends on AC activity (Kumar P. et al., (2007) Biochem. J., 408:251-258). Assays for measuring cell-survival assays following heat or UV exposure were developed as a potential surrogate for AC chaperone activity. HLE cell line SRA 01/04 cells were pre-incubated for 2 hours with CAP4349 and then exposed to heat (50° C. for 40 m) or UV light (48 seconds).
# [5] = system: HLE cell line SRA 01/04 cells; assay: UV-induced cell death of human lens epithelial cells; assay type: cell-based; conditions: pre-incubated 2 hours; UV light 48 seconds
# Source text: as §3
# [6] = system: HLE cell line SRA 01/04 cells; assay: Viability of human lens epithelial cells under normal conditions; assay type: cell-based; conditions: no stress
# Source text: as §3, with “HLE cell line SRA 01/04 cells were pre-incubated for 2 hours with CAP4349 and then exposed to heat (50° C. for 40 m) or UV light (48 seconds).” left out
# [7] = system: AAC(R116C)-GFP in HeLa cells; assay: High-content assay for AAC aggregation (p62-positive inclusions); assay type: cell-based, human; conditions: GFP fluorescence
# Protocol: Cellular effects of CAP4349 were evaluated using an automated high-content assay for AAC aggregation. AAC(R116C)-GFP has been reported to form p62 positive inclusions (p62 is known to co-localize with ubiquitinated aggregates in several protein aggregation diseases) (Neal R, et al. (2010) Mol. Vis. 16:2137-2145.). Experiments were carried out to determine whether CAP4349 had any effect on co-localization of AAC and p62 in HeLa cells.
# [8] = system: bovine lens soluble extracts; assay: UV-induced opacification of bovine lens lysate; assay type: biochemical; conditions: UV radiation
# Source text: (§4) Both bovine and human lens lysates contain AAC as well as multiple endogenous client proteins, all of which are present at physiological ratios in a physiologically-relevant milieu of ions, redox pairs and antioxidants.
# [9] = system: human lens soluble extracts; assay: UV-induced opacification of human lens lysate; assay type: biochemical; conditions: UV radiation
# Source text: as §4
# porcine lenses = assay: UV-induced opacification of porcine lenses ex vivo; conditions: pretreated with 125 μM
# Protocol: Porcine lenses were pretreated with 125 μM CAP4349 (or vehicle) and UV irradiated (or not). Porcine lenses (Sierra for Medical Science, Inc., Whittier, CA) have been used previously in ex vivo models of cataracts (Raju, M. (2014) Biochemistry, 53(16):2615-2623.).
# [10] = Estimated maximum concentration in the lens after topical ophthalmic dosing; conditions: meglumine formulated; topical ophthalmic bioavailability 2-5%
# Source text: (§5) Therefore, in order to improve the aqueous solubility and bioavailability, the present disclosure provides prodrugs of CAP4349.
# Solubility = assay type: physicochemical; conditions: for solubility: disodium salt
# Protocol: as §5
# To a solution of Tafamidis, CAP4349 (308 mg) in DMF (10 mL) was added K2CO3 (220 mg) and KI (132 mg) followed by di-tert-butyl chloromethyl phosphate at room temperature while stirring. The reaction mixture was stirred at 70° C. for two hours. The reaction was quenched with ice and extracted three times in Ethyl Acetate. The combined organic layer was washed with water followed by 1% aqueous solution of sodium thiosulfate, and lastly with Brine, yielding the intermediate t-butyl protected phosphate. The t-butyl protected phosphate intermediate was converted to disodium salt in two steps by cleaving the protecting group with TFA followed by NaHCO3 treatment in the presence of water and THF resulting in disodium salt of CAP4357, as a white solid.
# AAC [11] = target: T1, AAC; assay: UV-induced aggregation of hAAC, SDS-PAGE; assay type: biochemical; conditions: UV light 15 minutes; 0-1000 μM; 4-20% SDS-PAGE
# Protocol: as §1
# hAAC, with or without CAP4349-M (meglumine salt, 0-1000 μM), was exposed to UV light for 15 minutes and analyzed on a 4-20% gradient SDS-PAGE gel.
# [12] = Drug bank value; cited from earlier work
# [13] = versus meglumine salt of CAP4349
smiles,measurement,setting,value
"O=C(O)c1ccc2nc(-c3cc(Cl)cc(Cl)c3)oc2c1 [CAP4349, 2-(3,5-dichlorophenyl) benzo[d]oxazole-6-carboxylic acid]",EC50,AAC [1]; read-out: EC50 for the prevention of hACC aggregation (as restated in Example 7),19.5 µM
same,protection of lysozyme from aggregation by AAC,AAC [2],increased protection of lysozyme from aggregation
same,protection provided by AAC against UV-induced BGC aggregation,AAC [3],increased the protection provided by AAC against UV-induced BGC aggregation in a dose-dependent manner
same,protection from heat-induced cell death,[4],protects the cells from heat-induced and UV-induced cell death in a dose-dependent manner
same,protection from UV-induced cell death,[5],protects the cells from heat-induced and UV-induced cell death in a dose-dependent manner
same,viability under normal conditions,[6],does not alter the viability
same,aggregates of AAC(R116C)-GFP co-localized with p62,[7],decreased
same,protection of bovine lysate from UV-induced opacification,[8],protected both bovine (FIG. 5A) and human (FIG. 5B) lysates from UV-induced opacification in a dose-dependent manner
same,protection of human lysate from UV-induced opacification,[9],protected both bovine (FIG. 5A) and human (FIG. 5B) lysates from UV-induced opacification in a dose-dependent manner
same,UV-induced opacification of porcine lenses,porcine lenses,prevent UV-induced opacification
same,maximum concentration in the lens,[10],about 5 μM
O=C(OCOP(=O)(O)O)c1ccc2nc(-c3cc(Cl)cc(Cl)c3)oc2c1.[Na+].[Na+] [CAP4357],solubility,"Solubility; aqueous with cosolvent or surfactant or cyclodextrin, 5% aqueous (2-Hydroxypropyl)-β-cyclodextrin, read-out: solubility in 5% aqueous HPBCD",40 mg/mL
same,solubility,"Solubility; water, read-out: aqueous solubility",25 mg/mL
same,fold increase in HPBCD solubility,Solubility; [13],"1,238 fold"
same,fold increase in aqueous solubility,Solubility; [13],774 fold
CNC[C@H](O)[C@@H](O)[C@H](O)[C@H](O)CO.O=C(O)c1ccc2nc(-c3cc(Cl)cc(Cl)c3)oc2c1 [CAP4349-M],prevention of hAAC aggregation (band intensities of aggregated and non-aggregated form),AAC [11],dose-dependent prevention of hAAC aggregation
same,maximum solubility,[12],0.0323 mg/mL
O=C(O)c1ccc2nc(-c3cc(Cl)cc(Cl)c3)oc2c1 [CAP4349-M],EC50,"AAC [1]; UV light 60 minutes, absorbance, n=3 or 4, read-out: EC50, half-maximal response of hAAC aggregation",19.7 µM

# From patent publication US20220241247A1, “PHARMACOLOGICAL AGENTS FOR TREATING PROTEIN AGGREGATION DISEASES OF THE EYE” (PLEX PHARMACEUTICALS, INC., priority 2019, published 2022)
